For assay [1], the target named is IRAK4 (Canis lupus familiaris, UniProt A0A8I3S726). The assay is described as follows: Radiometric protein kinase assay, dog IRAK4. It is filed as biochemical, Dog (Canis lupus familiaris). The settings on record: 10 μM ATP. As for the experimental part:
(§1) A radiometric protein kinase assay was used for measuring the kinase activity of the Dog (Canis lupus familiaris) IRAK4, JAK1, JAK2, SYK kinases. All kinase assays were performed in 96-well FlashPlates in a 50 μl reaction volume. The reaction cocktail was pipetted in four steps in the following order: • 20 μl of assay buffer (standard buffer) • […] of test compound (in 10% DMSO) • 20 μl enzyme/substrate mix • […] (in H2O) The reaction cocktails were incubated at 30° C. for 60 minutes. The reaction was stopped with 50 μl of 2% (v/v) H3PO4, plates were aspirated and washed two times with 200 μl 0.9% (w/v) NaCl. Incorporation of 33Pi was determined with a microplate scintillation counter.
(§2) IC50 calculation: the residual activity (in %) for each well of a particular plate was calculated by using the following formula: Res. Activity (%)=100×[(cpm of compound−low control)/(high control−low control)]
(§3) The residual activities for each concentration and the compound IC50 values were calculated using Quattro Workflow V3.1.1 (Quattro Research GmbH, Munich, Germany; www.quattro-research.com). The fitting model for the IC50 determinations was “Sigmoidal response (variable slope)” with parameters “top” fixed at 100% and “bottom” at 0%. The fitting method used was a least-squares fit. […]

Assay [2] has as its target JAK1 (Canis lupus familiaris, UniProt A0A8I3RS40). Briefly: Radiometric protein kinase assay, dog JAK1. Format: biochemical, Dog (Canis lupus familiaris). The settings on record: 3 μM ATP. On the procedure: as §1, §2, §3
Assay [3] addresses JAK2 (Canis lupus familiaris, UniProt A0A8C0QV87). The assay is described as follows: Radiometric protein kinase assay, dog JAK2. It is filed as biochemical, Dog (Canis lupus familiaris). The note with it: 0.3 μM ATP. On the procedure: as §1, §2, §3
Assay [4] concerns the target SYK (Canis lupus familiaris, UniProt A0A8I3P3G0). The assay is described as follows: Radiometric protein kinase assay, dog SYK. It is filed as biochemical, Dog (Canis lupus familiaris). The note with it: 1 μM ATP. On the procedure: A radiometric protein kinase assay was used for measuring the kinase activity of the Dog (Canis lupus familiaris) IRAK4, JAK1, JAK2, SYK kinases. All kinase assays were performed in 96-well FlashPlates in a 50 μl reaction volume. […] The reaction was stopped with 50 μl of 2% (v/v) H3PO4, plates were aspirated and washed two times with 200 μl 0.9% (w/v) NaCl. Incorporation of 33Pi was determined with a microplate scintillation counter. IC50 calculation: the residual activity (in %) for each well of a particular plate was calculated by using the following formula: Res. Activity (%)=100×[(cpm of compound−low control)/(high control−low control)] […] The fitting method used was a least-squares fit. Materials: The dog (Canis lupus familiaris) protein kinases IRAK4, JAK1, JAK2 and SYK had been recombinantly expressed in Sf9 insect cells and purified by affinity chromatography.

For assay [5], the system named is house dust mites (HDM)-sensitized Beagle dogs. Briefly: In vivo model of house dust mite induced canine allergic dermatitis. The note with it: for reduction rates of edema / reduction rates of erythema: range over time points. As for the experimental part:
Therein, HDM-sensitization consisted of a series of subcutaneous injections of HDM antigen (10 μg, Greer Laboratories, Lenoir, N.C., USA) and Alhydrogel® (0.2 mL, InvivoGen, San Diego, Calif. 921221, USA) as adjuvant in time intervals of approximately two weeks. The sensitization process was monitored and confirmed by intradermal skin testing. […] The control group was not treated while the group treated with the compound according to formula (IIIa) supra was orally treated with gelatin capsules containing the compound according to formula (IIIa) supra and Ac-Di-Sol; the group receiving Apoquel®, received the commercially available tablets. […] Plasma samples were analyzed to determine exposure to the compound in relationship to the clinical evaluations. […] This is illustrated by Tables 1 and 2, and by FIGS. 1 and 2.

The mark [6] stands for this setting: 0.8 mg/kg BID oral, 0.5 h post-challenge.
Setting [7] is: 0.8 mg/kg BID oral, 1 h post-challenge.
Setting [8] is: 0.8 mg/kg BID oral, 4 h post-challenge.
Where [9] appears, read: 0.8 mg/kg BID oral, 6 h post-challenge.
[10] abbreviates: 0.8 mg/kg BID oral, 24 h post-challenge.
[11] abbreviates: 0.8 mg/kg BID oral, 48 h post-challenge.
Where [12] appears, read: 2 mg/kg BID oral, 0.5 h post-challenge.
The mark [13] stands for this setting: 2 mg/kg BID oral, 1 h post-challenge.
[14] abbreviates: 2 mg/kg BID oral, 4 h post-challenge.
Setting [15] is: 2 mg/kg BID oral, 6 h post-challenge.
Where [16] appears, read: 2 mg/kg BID oral, 24 h post-challenge.
Setting [17] is: 2 mg/kg BID oral, 48 h post-challenge.

pIC50: −log10 of the molar value. Bounds are passed on as bounds.

A word on the pIC50: it is the negative decadic logarithm of the IC50, by convention in mol/L.

Sequence of JAK1 (A0A8I3RS40 1-1159): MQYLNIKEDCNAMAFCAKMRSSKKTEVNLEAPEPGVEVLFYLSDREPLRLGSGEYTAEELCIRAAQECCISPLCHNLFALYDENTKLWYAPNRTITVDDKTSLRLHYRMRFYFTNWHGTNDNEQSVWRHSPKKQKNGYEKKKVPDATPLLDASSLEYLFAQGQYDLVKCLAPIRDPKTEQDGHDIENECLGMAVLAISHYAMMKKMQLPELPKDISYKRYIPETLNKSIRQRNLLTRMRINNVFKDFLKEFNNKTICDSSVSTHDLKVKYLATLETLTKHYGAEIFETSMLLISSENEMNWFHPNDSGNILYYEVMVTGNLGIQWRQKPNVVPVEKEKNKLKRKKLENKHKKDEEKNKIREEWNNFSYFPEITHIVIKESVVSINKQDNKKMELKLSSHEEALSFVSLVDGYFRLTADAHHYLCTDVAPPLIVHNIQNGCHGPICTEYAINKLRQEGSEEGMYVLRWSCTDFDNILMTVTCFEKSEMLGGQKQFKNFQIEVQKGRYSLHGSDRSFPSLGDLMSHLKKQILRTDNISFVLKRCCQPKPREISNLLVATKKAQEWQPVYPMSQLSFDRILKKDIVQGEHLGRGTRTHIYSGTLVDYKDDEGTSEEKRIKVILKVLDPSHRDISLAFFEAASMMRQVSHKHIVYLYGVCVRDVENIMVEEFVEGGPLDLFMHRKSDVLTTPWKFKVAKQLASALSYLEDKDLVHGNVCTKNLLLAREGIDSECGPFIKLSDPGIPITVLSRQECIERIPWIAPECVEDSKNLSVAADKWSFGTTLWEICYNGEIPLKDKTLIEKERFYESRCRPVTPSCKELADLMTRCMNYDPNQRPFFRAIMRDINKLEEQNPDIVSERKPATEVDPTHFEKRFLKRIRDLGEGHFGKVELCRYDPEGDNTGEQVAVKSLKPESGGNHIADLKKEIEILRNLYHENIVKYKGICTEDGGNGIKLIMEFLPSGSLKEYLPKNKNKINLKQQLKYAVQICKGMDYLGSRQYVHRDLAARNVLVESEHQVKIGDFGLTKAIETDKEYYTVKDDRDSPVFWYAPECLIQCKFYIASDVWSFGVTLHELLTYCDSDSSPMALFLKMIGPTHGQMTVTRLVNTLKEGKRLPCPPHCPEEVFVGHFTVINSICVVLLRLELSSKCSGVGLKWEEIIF
Sequence of JAK2 (A0A8C0QV87 1-1132): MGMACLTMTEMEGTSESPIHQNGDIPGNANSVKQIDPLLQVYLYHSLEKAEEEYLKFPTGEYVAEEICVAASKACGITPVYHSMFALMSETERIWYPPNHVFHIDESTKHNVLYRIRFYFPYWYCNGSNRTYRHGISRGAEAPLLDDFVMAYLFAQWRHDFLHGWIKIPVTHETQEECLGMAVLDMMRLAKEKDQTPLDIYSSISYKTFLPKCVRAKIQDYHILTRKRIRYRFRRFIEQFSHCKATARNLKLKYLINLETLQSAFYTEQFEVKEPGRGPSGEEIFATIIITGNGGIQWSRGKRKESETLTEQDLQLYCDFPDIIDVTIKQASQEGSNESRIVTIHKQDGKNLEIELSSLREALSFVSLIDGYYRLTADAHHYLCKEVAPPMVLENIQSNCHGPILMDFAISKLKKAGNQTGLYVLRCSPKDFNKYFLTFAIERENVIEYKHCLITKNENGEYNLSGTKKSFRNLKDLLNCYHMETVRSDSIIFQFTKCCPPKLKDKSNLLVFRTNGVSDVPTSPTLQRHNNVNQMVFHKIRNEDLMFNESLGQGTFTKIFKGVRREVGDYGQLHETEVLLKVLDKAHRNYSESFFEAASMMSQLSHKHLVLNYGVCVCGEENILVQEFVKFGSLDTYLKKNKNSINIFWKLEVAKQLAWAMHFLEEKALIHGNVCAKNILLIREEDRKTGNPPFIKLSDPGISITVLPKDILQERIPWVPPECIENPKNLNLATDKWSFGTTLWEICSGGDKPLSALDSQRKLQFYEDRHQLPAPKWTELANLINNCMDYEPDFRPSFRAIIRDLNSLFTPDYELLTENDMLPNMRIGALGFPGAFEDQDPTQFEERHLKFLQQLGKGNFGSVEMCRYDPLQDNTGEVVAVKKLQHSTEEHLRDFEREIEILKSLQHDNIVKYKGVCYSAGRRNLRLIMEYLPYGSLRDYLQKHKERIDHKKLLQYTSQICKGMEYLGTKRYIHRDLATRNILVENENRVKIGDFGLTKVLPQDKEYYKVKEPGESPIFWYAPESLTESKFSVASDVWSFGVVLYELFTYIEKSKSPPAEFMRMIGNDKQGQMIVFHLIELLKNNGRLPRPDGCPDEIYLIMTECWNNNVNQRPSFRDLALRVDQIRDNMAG
Sequence of SYK (A0A8I3P3G0 1-633): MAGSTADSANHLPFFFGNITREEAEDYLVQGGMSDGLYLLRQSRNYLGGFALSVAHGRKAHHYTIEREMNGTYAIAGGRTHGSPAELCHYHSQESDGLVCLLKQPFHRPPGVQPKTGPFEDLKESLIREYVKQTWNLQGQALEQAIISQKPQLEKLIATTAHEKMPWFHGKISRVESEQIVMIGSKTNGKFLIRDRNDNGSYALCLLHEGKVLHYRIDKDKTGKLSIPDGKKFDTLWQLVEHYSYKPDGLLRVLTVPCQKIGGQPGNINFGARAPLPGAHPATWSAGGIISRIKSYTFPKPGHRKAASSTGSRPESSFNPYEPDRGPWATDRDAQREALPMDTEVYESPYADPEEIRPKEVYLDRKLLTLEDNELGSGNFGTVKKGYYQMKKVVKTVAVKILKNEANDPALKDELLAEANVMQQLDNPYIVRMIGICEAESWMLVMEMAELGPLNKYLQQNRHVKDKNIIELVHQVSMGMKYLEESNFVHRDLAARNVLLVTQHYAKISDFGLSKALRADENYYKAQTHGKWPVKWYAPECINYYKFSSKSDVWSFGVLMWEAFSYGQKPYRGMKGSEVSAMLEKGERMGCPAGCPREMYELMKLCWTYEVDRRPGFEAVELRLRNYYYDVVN
Sequence of IRAK4 (A0A8I3S726 1-460): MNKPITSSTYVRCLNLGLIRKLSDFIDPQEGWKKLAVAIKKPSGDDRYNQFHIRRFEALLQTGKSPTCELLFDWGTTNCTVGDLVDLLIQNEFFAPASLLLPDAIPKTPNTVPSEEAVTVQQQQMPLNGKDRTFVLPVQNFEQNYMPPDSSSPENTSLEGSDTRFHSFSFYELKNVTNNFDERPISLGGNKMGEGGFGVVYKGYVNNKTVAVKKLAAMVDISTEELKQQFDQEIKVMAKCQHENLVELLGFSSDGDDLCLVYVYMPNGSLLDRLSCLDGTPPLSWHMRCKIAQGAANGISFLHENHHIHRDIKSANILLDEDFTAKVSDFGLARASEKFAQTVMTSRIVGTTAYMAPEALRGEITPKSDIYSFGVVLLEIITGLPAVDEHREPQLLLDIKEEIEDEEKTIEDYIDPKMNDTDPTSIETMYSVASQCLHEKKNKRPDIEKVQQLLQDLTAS

With `Cn1cc(-c2nc(N[C@@H]3CCCC[C@@H]3N)c(Cl)c3c2C(=O)NC3)cn1` [IVa, 6-((1R,2S)-2-Aminocyclohexylamino)-7-chloro-4-(1-methyl-1H-pyrazol-4-yl)-1H-pyrrolo[3,4-c]pyridin-3(2H)-one], the negative-log IC50 (pIC50) in assay [1] is 7.99; in assay [2] it was 6.33; in assay [3] it was 6.20; in assay [4], 6.49.
As for `Cn1cc(-c2nc(N[C@@H]3CCCC[C@@H]3N)c(F)c3c2C(=O)NC3)cn1` [IIIa, 6-((1R,2S)-2-aminocyclohexylamino)-7-fluoro-4-(1-methyl-1H-pyrazol-4-yl)-1H-pyrrolo[3,4-c]pyridine-3(2H)-one], the “Percentage of reduction of Edema (compared to untreated control, median values)” value in assay [5] (setting [6]) is 41%; in assay [5] (setting [7]), 52%; in assay [5] (setting [8]), 39%; in assay [5] (setting [9]), 49%; in assay [5] (setting [10]), 41%; in assay [5] (setting [11]), 100%. In addition, the “Percentage of reduction of Edema (compared to untreated control, median values)” value came out at 76% in assay [5] (setting [12]); 81% in assay [5] (setting [13]); 75% in assay [5] (setting [14]); 79% in assay [5] (setting [15]); 75% in assay [5] (setting [16]); 100% in assay [5] (setting [17]). Moreover, the “Percentage of reduction of Erythema (compared to untreated control, median values)” value in assay [5] (setting [6]) is 33%; in assay [5] (setting [7]), 63%; in assay [5] (setting [8]) it was 30%; in assay [5] (setting [9]) it was 28%; in assay [5] (setting [10]), 43%; in assay [5] (setting [11]), 100%. Moreover, the “Percentage of reduction of Erythema (compared to untreated control, median values)” value in assay [5] (setting [12]) is given as 74%; in assay [5] (setting [13]), 76%; in assay [5] (setting [14]) it was 75%; in assay [5] (setting [15]), 76%; in assay [5] (setting [16]), 69%; in assay [5] (setting [17]), 100%. The “reduction rates of edema” value in assay [5] (0.8 mg/kg BID) was 39-100%; in assay [5] (2 mg/kg BID), 75-100%. Further, the “reduction rates of erythema” value is given as 28-100% in assay [5] (0.8 mg/kg BID) and 69-100% in assay [5] (2 mg/kg BID). The “comparative reduction of edema in the CAD model (% compared the control group), up to” value in assay [5] (2 mg/kg BID) is recorded as more than 75%. The “comparative reduction of erythema in the CAD model (% compared the control group), up to” value in assay [5] (2 mg/kg BID) was more than 75%. Also, the “effect on clinical signs of CAD (edema and erythema)” value in assay [5] (House Dust Mite model, oral BID) is given as “significantly reduced”.
